From US6995164B2, “Methods of treating tumors” (Rhode Island Hospital, priority 1999, dated 2006)
“Also recorded” adds a separate entry of the source.

Legend:
[1] = tested on: tumor cells; assay: Apoptosis of tumor cells in culture; assay type: cell-based
[2] = tested on: glioblastoma multiforma; assay: Clinical use, intravenous infusion in advanced recurrent glioblastoma multiforma; assay type: in vivo, human; conditions: 20 g i.v. over 6 hours twice a week, at least one 5 week regimen
Description: Four patients, which were diagnosed with advanced recurrent glioblastoma multiforma, were treated with taurolidine. The prognosis for this group of patients was determined to be approximately 8 weeks of survival.

[3] = tested on: TNF; interleukins 1, 6, and 10; VEGF; TGF; assay: Angiogenesis factors in patients with metastatic colon cancer; assay type: in vivo, human; conditions: taurolidine-treated subjects compared to placebo
Description: Patients with metastatic colon cancer were treated with taurolidine and several factors controlling angiogenesis were measured.

[4] = tested on: human ovarian tumor cells; assay: Growth of established tumor cell colonies in vitro; assay type: cell-based; conditions: 24-hour exposure to 50 μM
Description: (§1) Parallel studies were carried out to assess whether disruption of cell adhesion played a role in the cytotoxic activity.

[5] = tested on: 3T3 cells; assay: Cell cycle kinetics and DNA fragmentation after 24-hour exposure; assay type: cell-based
Excerpt: (§2) This DNA fragmentation was not observed in normal 3T3 cells.

[6] = tested on: PA1 human ovarian cells; assay: as above; assay type: cell-based
Excerpt: as §2

[7] = tested on: normal murine bone marrow cultures; assay: Cytotoxic and apoptotic activity in normal primary cells; assay type: cell-based
Excerpt: This observation was confirmed using normal (non-tumor) primary cells derived from animals, which are known to be free of tumors.

[8] = tested on: panel of human and murine neoplastic cell lines; assay: Cell growth inhibition across the cell line panel; assay type: cell-based; conditions: 72 h, 3 d exposure; panel of human and murine tumor cell lines; read-out: IC50s, range over all cell lines evaluated
Description: Included in the tumor cell line panel were ovarian tumor cells (PA-1 and SKOV-3), colon tumor cells (HCT-8, HCT-15 and HT-29), lung tumor cells (H-157, A-549 and H-596), prostate tumor cells (DU-145), glioma cells (U-251), and melanoma (MNT-1). The murine melanoma B16F10 cell line was also tested. These cell lines readily available, e.g., from the American Type Culture Collection (ATCC). Cells were cultured in appropriate growth medium at 37° C. in a humidified incubator in an atmosphere of 5% CO2. Under these growth conditions, the doubling time of all cell lines was 20–28 h.
One ml of this cell suspension was added to each well of a 12 well cell culture plate that contained 3 ml of appropriate media plus serum. […] Control wells received 40 μl of 5% Kollidon 17PF alone. Seventy-two hours later, all cells were harvested by trypsinization and cell number determined electronically using a Coulter Model Z1 particle counter (Coulter Corp., Miami, Fla.) to assess cell growth inhibition. Each experiment was performed in duplicate and repeated a minimum of three times.
Cells were seeded at a density of 1–5×10^4 cells in each well of a 6 well tissue culture flask. […] After three days, cells were harvested by trypsinization and cell number determined electronically. Cell growth inhibition was determined by comparison to non-Taurolidine exposed control cultures. […]

[9] = tested on: aerobic and anaerobic bacterial strains; conditions: depending on the bacterial strain evaluated; cited from earlier work
[10] = tested on: MDR-transfected glioblastoma cells; assay: Cytotoxicity to drug resistant tumor cells
Description: Glioblastoma cells were transfected with a gene encoding multiple drug resistance (MDR).

[11] = tested on: NIH-3T3; assay: Western-blot analysis of PARP cleavage; assay type: cell-based, murine; conditions: 24 h exposure to 50 or 100 μM
Description: (§3) Two×10^6 cells were seeded in 150 cm^2 tissue culture flasks. […] After an additional twenty-four hours, cells were harvested, cell number determined, and aliquots derived from equal cell numbers generated from each exposure condition. Total proteins from these whole cell lysates were separated by SDS-PAGE and transferred to nitrocellulose filters. Filters were then immunoblotted to detect intact PARP protein and cleavage fragments by using the clone C-2-10 mouse monoclonal anti-PARP antibody (Zymed Laboratories, San Francisco, Calif.). The resulting protein-antibody complexes were visualized by chemiluminescence techniques.
(§4) Western-blot analysis was used to assess of PARP cleavage. Two×10^6 cells were seeded into separate 75 cm^2 tissue culture flasks containing 20 ml of tissue culture media plus serum. […] Twenty-four hours after the addition of Taurolidine, cells were harvested, cell number determined, and aliquots containing an equal cell number were generated from each exposure condition. Total proteins from whole cell lysates generated from these aliquots were separated by SDS-PAGE and electrotransferred to nitrocellulose filters. Filters were then processed to detect intact PARP protein and cleavage fragments by using the clone C-2-10 mouse monoclonal anti-PARP antibody (Zymed Laboratories, San Francisco, Calif.). […]

[12] = Clinical tolerability (i.p. lavage in recurrent ovarian tumors, systemic in glioblastoma); assay type: in vivo, human; conditions: i.p. lavage after surgery (ovarian) or systemic (glioblastoma)
Description: Taurolidine was administered by i.p. lavage immediately following surgery for removal of recurrent ovarian tumors. For patients with glioblastoma, Taurolidine was administered systemically.

[13] = tested on: HL-60 human promyelocytic cell line; assay: Apoptosis induction in non-adherent cancer cell model; assay type: cell-based
[14] = tested on: SKOV-3; assay: Western-blot analysis of PARP cleavage; assay type: cell-based, human; conditions: 24 h exposure to 50 or 100 μM
Description: as §3, §4

[15] = tested on: PA-1; assay: Western-blot analysis of PARP cleavage; assay type: cell-based, human; conditions: 24 h exposure to 50 or 100 μM
Description: as §3, §4

[16] = tested on: SKOV-3 human ovarian tumor xenografts; assay: Therapeutic effectiveness against i.p. human ovarian tumor xenografts; assay type: in vivo, female nude mice
Excerpt: Fourteen days following the final Taurolidine injection, mice in all groups were sacrificed and the peritoneal cavity examined for the presence of tumors. Each experimental was repeated three times and the pooled number of animals in each group ranged from 15–21.
Fourteen days following the final Taurolidine injection, mice in all groups were sacrificed, i.p. ovarian tumor xenografts removed and tumor weighed. Each experiment was repeated three times and the pooled number of animals in each group ranged from 15–21. Each bar represents the mean (±SE) tumor weight of 15–21 animals. ***p≦0.001, ****p≦0.0001.
(§5) Studies to assess in vivo toxicity and therapeutic effectiveness were carried out in 6–12 week old female homozygous athymic (Hsd:athymic nude nu/nu) mice obtained from Harlan (Indianapolis, Ind.).
To evaluate therapeutic effectiveness, mice received a single intraperitoneal injection of 5×10^6 SKOV-3 cells in a volume of 0.5 ml. Immediately thereafter, mice were randomly divided into treatment groups of 7 animals. […] Control animals received 1 ml injections of 5% Kollidon 17PF alone. Animals were examined daily and body weight recorded twice weekly. […] The mean tumor weight for each treatment group was calculated and statistical analysis of differences in the mean tumor weight between treatment groups employed the Student's t-test. p-values of ≦0.05 were considered significant.

[17] = tested on: NIH-3T3; assay: Cell cycle distribution and sub-G0/G1 DNA debris by flow cytometry (propidium iodide); assay type: cell-based, murine; conditions: 48 h exposure
Description: (§6) Three×10^5 cells were seeded in plastic tissue culture flasks. […] Control cultures received an appropriate volume of Kollidine-17P. […] The percentage of DNA debris in the sub-G0/G1 region was assessed using cytofluorometric techniques. Each bar represents the mean (±SE) of three determinations. **p≦0.01, ***p≦0.001, ****p≦0.0001
(§7) For flow cytometry studies, 1×10^6 PA-1, SKOV-3, or NIH-3T3 cells were incubated for 24 h in appropriate media containing serum. […] Control cultures for each cell line were incubated in media containing 40 μl of 5% Kollidon 17PF alone. Forty-eight hours later, all cells were harvested by trypsinization and prepared for cytofluorometric analysis by standard methods. For example, harvested cells were resuspended in ice cold phosphate-buffered saline at a final cell density of 2×10^6 cells/ml. The cells then were stained for 30 min at room temperature in the dark with a solution of 0.05 mg/ml propidium iodide, 0.6% Igepal, and 1% sodium citrate. Flow cytometry was performed by FACScan (Becton Dickinson, Plymouth, England) using the ModFit LT program (Becton Dickinson). […]
(§8) Three×10^5 cells were seeded in plastic tissue culture flasks. […] After an additional 48 h, cells were harvested, stained with propidium iodide, and cell cycle distribution assessed using cytofluorometric techniques. […]

[18] = Taurolidine-induced toxicity, 3 consecutive daily i.p. bolus injections; assay type: in vivo
Description: as §5
Control animals received 1 ml injections of 5% Kollidon 17PF alone. Animals were examined daily and body weight recorded twice weekly. A reduction in body weight of greater than 10% was considered significant. The maximally tolerated dose (MTD) was considered to be the dose which produced ˜10% mortality.
During the injection regimen, and daily thereafter for 30 d, mice were weighed and examined. Experiments were repeated a minimum of three times and mortality and weight loss data pooled.

[19] = tested on: SKOV-3; assay: Cell cycle distribution and sub-G0/G1 DNA debris by flow cytometry (propidium iodide); assay type: cell-based, human; conditions: 48 h exposure
Description: as §6, §7, §8

[20] = tested on: PA-1; assay: as above; assay type: cell-based, human
Description: Three×10^5 cells were seeded in plastic tissue culture flasks. […] Control cultures received an appropriate volume of Kollidine-17P. […] The percentage of DNA debris in the sub-G0/G1 region was assessed using cytofluorometric techniques.
For flow cytometry studies, 1×10^6 PA-1, SKOV-3, or NIH-3T3 cells were incubated for 24 h in appropriate media containing serum. […] Control cultures for each cell line were incubated in media containing 40 μl of 5% Kollidon 17PF alone. Forty-eight hours later, all cells were harvested by trypsinization and prepared for cytofluorometric analysis by standard methods. For example, harvested cells were resuspended in ice cold phosphate-buffered saline at a final cell density of 2×10^6 cells/ml. The cells then were stained for 30 min at room temperature in the dark with a solution of 0.05 mg/ml propidium iodide, 0.6% Igepal, and 1% sodium citrate. Flow cytometry was performed by FACScan (Becton Dickinson, Plymouth, England) using the ModFit LT program (Becton Dickinson). Statistical analysis was performed with the Kruskal Wallis non-parametric ANOVA test followed by Dunn's multiple comparisons test using Instat.
as §8

[21] = tested on: human cancer cell lines; assay: In vitro cytotoxic activity survey of human cancer cell lines; assay type: cell-based
Description: as §1

## O=S1(=O)CCN(CN2CCS(=O)(=O)NC2)CN1 [Taurolidine, Bis-(1,1-dioxoperhydro-1,2,4-thiadiazinyl-4)methane]
[1]
  incubation time after which apoptosis is induced: one
[2]
  patients in whom the tumor mass decreased or stayed the same: 3 out of the 4
[3]
  factors controlling the growth of blood vessels (TNF; interleukins 1, 6, 10; VEGF; TGF): decreased
[4]
  cytotoxic effect against the growth of established tumor cells: significant cytotoxic effect
[5]
  cell cycle kinetics: significantly reduced the percentage of cells in both the S- and G2/M-phases
[5]; 50 μM, flow cytometry and agarose-gel electrophoresis
  DNA fragmentation: not observed; also recorded: not apparent
[6]; PA1
  cell cycle kinetics: significantly reduced the percentage of cells in both the S- and G2/M-phases
[6]; human ovarian tumor cells, 50 μM, flow cytometry and agarose-gel electrophoresis
  DNA fragmentation: induced a high degree of DNA fragmentation; also recorded: overt DNA fragmentation
[7]
  concentration required to inhibit cell proliferation: concentrations in the mM range were required to inhibit cell proliferation
[8]
  IC50: 9.6 to 34.2 µM
[9]
  minimum concentration required to inhibit bacterial cell growth (MIC): 10 to 1000 µg/mL
[10]; MDR-transfected glioblastoma cells, 50 μM
  cytotoxicity: Significant cytotoxicity
[11]
  PARP cleavage: little evidence of this proteolytic event
[11]; listed as taurolidine
  PARP cleavage: PARP cleavage was not evident
[12]
  tolerability in patients: well tolerated
[13]; HL-60
  exposure time that induces apoptosis: ≤ 90 min
[13]; non-adherent cancer cell models
  apoptosis pathway events: activation of caspases 3, 8 and 9
[14]
  PARP cleavage: induced PARP cleavage; also recorded: resulted in PARP cleavage
[15]
  PARP cleavage: induced PARP cleavage; also recorded: resulted in PARP cleavage
[16]; 3 d 20 mg/mouse regimen initiated on the day of tumor cell injection
  tumor formation, ascites development and growth: highly effective and inhibited tumor formation
[16]; single cycle initiated 5 d after tumor cell injection (established i.p. tumors)
  tumor growth inhibition: capable of significantly inhibiting tumor growth
[16]; therapy delayed for up to 3 d after tumor cell injection
  mean tumor size in treated mice versus controls: significantly smaller than in controls
[17]
  DNA debris in the sub-G0/G1 region: did not increase DNA debris in sub-G0/G1 region; also recorded: did not significantly affect the appearance of DNA debris
  effect on cell cycle distribution (in words): decreased the percentage of cells in G0/G1 and increased the percentage of cells in S in a concentration-dependent manner
[18]; 10 mg/mouse/inj i.p. on 3 consecutive days
  mortality (%): 6%
[18]; 20 mg/mouse/inj i.p. on 3 consecutive days
  mortality (%): 13%
[18]; 25 mg/mouse/inj i.p. on 3 consecutive days
  mortality (%): 47%
[18]; 30 mg/mouse/inj i.p. on 3 consecutive days
  mortality (%): 100%
[18]; mouse, in vivo, ip
  maximally tolerated dose (MTD): 20 mg/mouse
[19]
  effect on cell cycle distribution (in words): concentration-dependent decrease in the percentage of cells in G0/G1 but increased the percentage of cells in both the S-phase and G2/M
[19]; concentration-dependent
  DNA debris in the sub-G0/G1 region: significantly increased DNA debris in the sub-G0/G1 region; also recorded: appearance of DNA debris in the sub-G0G1 region
[20]; 48 h exposure to up to 100 μM
  effect on cell cycle distribution (in words): little effect on cell cycle distribution
[20]; 48 h exposure, concentration-dependent
  DNA debris in the sub-G0/G1 region: significantly increased DNA debris in the sub-G0/G1 region; also recorded: appearance of DNA debris in the sub-G0G1 region

## COc1cccc2c1C(=O)c1c(O)c3c(c(O)c1C2=O)C[C@@](O)(C(=O)CO)C[C@@H]3O[C@H]1C[C@H](N)[C@H](O)[C@H](C)O1 [adriamycin]
[10]; MDR-transfected versus untransfected glioblastoma cells
  resistance of transfected cells to standard chemotherapeutic agents: 100–1000 times

## O=S1(=O)CCNCN1 [taurultam]
[21]; cancer cells versus normal control cells
  induction of apoptotic death: induced apoptotic death of cancer cells but not normal control cells
[21]; same human cancer cell lines as for taurolidine
  cytotoxic activity relative to taurolidine: approximately 75%
